Converted amounts (≈) assume the structure as drawn. Structures can show the parent of a compound that is named as a salt. Where two headings read alike, the source gives them in different places.
Experiments:
[1] = molecular target: T1, Ft-MglA (Francisella tularensis, UniProt Q5NFG1); assay: biochemical
[2] = molecular target: T2, Ec-SspA (Escherichia coli, UniProt P0ACA3); assay: biochemical
T2 construct: His-tagged from pCA24N-sspA (ASKA library clone), expressed in E. coli
T2 sequence (P0ACA3 2-212): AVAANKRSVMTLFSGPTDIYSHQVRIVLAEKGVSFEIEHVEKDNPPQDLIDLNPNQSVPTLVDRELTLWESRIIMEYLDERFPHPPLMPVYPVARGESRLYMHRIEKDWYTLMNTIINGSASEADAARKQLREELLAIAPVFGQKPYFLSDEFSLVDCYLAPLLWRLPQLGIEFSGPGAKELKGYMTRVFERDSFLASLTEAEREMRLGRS

[3] = test system: E. coli; assay: microbe, parasite or virus in culture; settings: Escherichia coli, read-out: E. coli MIC (mM)
[4] = molecular target: T2, Ec-SspA; assay: biochemical; parameters: differential scanning fluorometry with SYPRO Orange, shift of midpoint transition temperature of purified protein
[5] = molecular target: T1, Ft-MglA; assay: biochemical; settings: read-out: ΔTm (°C) ^1
[6] = molecular target: F. tularensis SCHU S4 SspA fused to the zinc finger DNA binding domain of murine Zif268 (pACTR-sspA-Zif) (F. tularensis SCHU S4); assay: two-hybrid
[7] = read-out: ΔTm (°C) ^1 / Ft-MglA
[8] = read-out: ΔTm (°C) ^1 / Ec-SspA

For `CC1=C(/C=C/C(C)=C/C=C/C(C)=C/C(=O)O)C(C)(C)CCC1` [Retinoic acid], which ΔTm at 40 µM [1, 7] is on record?
Its ΔTm at 40 µM is 24.5 ± 3.9 °C.

What about the ΔTm at 40 µM [2, 8] of the same compound?
The ΔTm at 40 µM was 23.3 ± 3.2 °C.

What about the MIC [3] of the same compound?
Its MIC is 0.5 mM (≈ 150 µg/mL).

What does the source list for `CCN(CC)CCCC(C)Nc1c2ccc(Cl)cc2nc2ccc(OC)cc12` (centres unmarked) [quinacrine]?
ΔTm at 40 µM [4, 8]: 15.2 ± 1.7 °C; ΔTm at 40 µM [1, 7]: 2.1 ± 0.9 °C; MIC [3]: 0.2 mM (≈ 80 µg/mL)

Which ΔTm at 40 µM [4, 8] does the source give for `CCCOc1ccc(C(=O)OCCN(CC)CC)cc1N` [Proparacaine hydrochloride] here?
The ΔTm at 40 µM was 27.9 ± 4.3 °C.

What about the ΔTm at 40 µM [1, 7] of the same compound?
Its ΔTm at 40 µM is 24.5 ± 4.4 °C.

What about the MIC [3] of the same compound?
Its MIC is 0.5 mM.

How did the MIC [3] turn out when `O=C(O)c1cc2ccccc2c(Cc2c(O)c(C(=O)O)cc3ccccc23)c1O` [Pamoic acid] was run?
The MIC was 0.25 mM (≈ 97.1 µg/mL).

`CCN(CC)C(=O)N1CCN(C)CC1` [Diethylcarbamazine citrate] was tested. Which ΔTm at 40 µM [5] did it give?
Its ΔTm at 40 µM is 2.1 ± 0.1 °C.

What about the MIC [3] of the same compound?
Its MIC is 1 mM.

“F. tularensis SCHU S4 MglA fused to the ω subunit of E. coli RNA polymerase (pBR-mglA-ω) (natural protein)” was tested. Which decrease of β-galactosidase activity (%) with arecoline hydrobromide [6] did it give?
Its decrease of β-galactosidase activity (%) with arecoline hydrobromide is 7.8%.

What about the decrease of β-galactosidase activity (%) with benzbromarone [6] of the same compound?
Its decrease of β-galactosidase activity (%) with benzbromarone is 5.8%.

And the decrease of β-galactosidase activity (%) with benzethonium chloride [6]?
Its decrease of β-galactosidase activity (%) with benzethonium chloride is 18.9%.

And the decrease of β-galactosidase activity (%) with captopril [6]?
Its decrease of β-galactosidase activity (%) with captopril is 16.2%.

And the decrease of β-galactosidase activity (%) with diethylcarbamazine citrate [6]?
The decrease of β-galactosidase activity (%) with diethylcarbamazine citrate was 19.3%.

What about the decrease of β-galactosidase activity (%) with dipyrone [6] of the same compound?
Its decrease of β-galactosidase activity (%) with dipyrone is 10.3%.

And the decrease of β-galactosidase activity (%) with flumequine [6]?
The decrease of β-galactosidase activity (%) with flumequine was 12%.

What about the decrease of β-galactosidase activity (%) with haloperidol [6] of the same compound?
The decrease of β-galactosidase activity (%) with haloperidol was 18%.

What about the decrease of β-galactosidase activity (%) with meclofenamic acid [6] of the same compound?
The decrease of β-galactosidase activity (%) with meclofenamic acid was 13.2%.

What about the decrease of β-galactosidase activity (%) with nabumetone [6] of the same compound?
The decrease of β-galactosidase activity (%) with nabumetone was 17.1%.

And the decrease of β-galactosidase activity (%) with pamoic acid [6]?
The decrease of β-galactosidase activity (%) with pamoic acid was 15.5%.

And the decrease of β-galactosidase activity (%) with proparacaine hydrochloride [6]?
Its decrease of β-galactosidase activity (%) with proparacaine hydrochloride is 9.8%.

And the decrease of β-galactosidase activity (%) with quinacrine dihydrochloride [6]?
Its decrease of β-galactosidase activity (%) with quinacrine dihydrochloride is 61%.

What about the decrease of β-galactosidase activity (%) with retinoic acid [6] of the same compound?
Its decrease of β-galactosidase activity (%) with retinoic acid is 31%.

What about the decrease of β-galactosidase activity (%) with theophylline monohydrate [6] of the same compound?
The decrease of β-galactosidase activity (%) with theophylline monohydrate was 6.5%.

And the decrease of β-galactosidase activity (%) with tolfenamic acid [6]?
Its decrease of β-galactosidase activity (%) with tolfenamic acid is 7.7%.

And the decrease of β-galactosidase activity (%) with ursolic acid [6]?
The decrease of β-galactosidase activity (%) with ursolic acid was 16.5%.

Which ΔTm at 40 µM ([4]; read-out: ΔTm (°C) ^1) does the source give for `Cc1c(N(C)CS(=O)(=O)O)c(=O)n(-c2ccccc2)n1C` [Dipyrone] here?
Its ΔTm at 40 µM is 8.9 ± 1.5 °C.

And the MIC [3]?
The MIC was 1 mM (≈ 311 µg/mL).

Which results are given for `CCc1oc2ccccc2c1C(=O)c1cc(Br)c(O)c(Br)c1` [Benzbromarone]?
ΔTm at 40 µM ([2]; read-out: ΔTm (°C) ^1): 30 ± 1.6 °C; MIC [3]: 1 mM (≈ 424 µg/mL)

Which ΔTm at 40 µM ([1]; read-out: ΔTm (°C) ^1) does the source give for `C[C@H]1[C@H](C)CC[C@]2(C(=O)O)CC[C@]3(C)C(=CC[C@@H]4[C@@]5(C)CC[C@H](O)C(C)(C)[C@@H]5CC[C@]43C)[C@H]12` [Ursolic acid] here?
Its ΔTm at 40 µM is 16.3 ± 3.2 °C.

What about the MIC [3] of the same compound?
The MIC was 1 mM (≈ 457 µg/mL).

How did the ΔTm at 40 µM ([4]; read-out: ΔTm (°C) ^1) turn out when `C[C@H](CS)C(=O)N1CCC[C@H]1C(=O)O` [Captopril] was run?
Its ΔTm at 40 µM is 9.2 ± 1.9 °C.

And the MIC [3]?
Its MIC is 1 mM (≈ 217 µg/mL).

For `Cn1c(=O)c2nc[nH]c2n(C)c1=O` [Theophylline monohydrate], which ΔTm at 40 µM [5] is on record?
The ΔTm at 40 µM was 2.3 ± 0.1 °C.

What about the MIC [3] of the same compound?
The MIC was 0.1 mM.

What does the source list for `COC(=O)C1=CCCN(C)C1` [Arecoline hydrobromide]?
ΔTm at 40 µM [5]: 2.8 ± 0.1 °C; MIC [3]: 0.1 mM

How did the ΔTm at 40 µM ([2]; read-out: ΔTm (°C) ^1) turn out when `Cc1ccc(Cl)c(Nc2ccccc2C(=O)O)c1Cl` [Meclofenamic acid] was run?
The ΔTm at 40 µM was 22.9 ± 4.1 °C.

What about the MIC [3] of the same compound?
The MIC was 1 mM (≈ 296 µg/mL).

`CC1CCc2cc(F)cc3c(=O)c(C(=O)O)cn1c23` (centres unmarked) [Flumequine] was tested. Which ΔTm at 40 µM ([1]; read-out: ΔTm (°C) ^1) did it give?
The ΔTm at 40 µM was 17.9 ± 2.4 °C.

What about the MIC [3] of the same compound?
Its MIC is 0.1 mM (≈ 26.1 µg/mL).

With `O=C(CCCN1CCC(O)(c2ccc(Cl)cc2)CC1)c1ccc(F)cc1` [Haloperidol] as the compound, how does the MIC [3] read?
The MIC was 0.1 mM (≈ 37.6 µg/mL).

Which ΔTm at 40 µM ([4]; read-out: ΔTm (°C) ^1) does the source give for `Cc1c(Cl)cccc1Nc1ccccc1C(=O)O` [Tolfenamic acid] here?
The ΔTm at 40 µM was 11.6 ± 2.7 °C.

And the MIC [3]?
The MIC was 1 mM (≈ 262 µg/mL).

How did the ΔTm at 40 µM ([1]; read-out: ΔTm (°C) ^1) turn out when `COc1ccc2cc(CCC(C)=O)ccc2c1` [Nabumetone] was run?
The ΔTm at 40 µM was 13.8 ± 0.1 °C.

And the MIC [3]?
Its MIC is 1 mM (≈ 228 µg/mL).

Source: publication PMC3553074 (PLoS ONE, 2013)
